Key:
[1] = system: ABUTH (Velvetleaf); assay: Postemergence herbicidal evaluation; assay type: in vivo, Abutilon theophrasti; settings: postemergence
Summary of the method: (§1)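 Visual 0–9 rating versus control (stand, vigor, malformation, size, chlorosis, overall appearance), taken four to five weeks post-spray. Two-week-old seedlings received roughly 0.0156–0.500 kg/ha active in acetone/water (50/50) with 0.5% TWEEN 20 via nozzle at 40 psi.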

[2] = system: AMBEL (Ragweed, Common); assay: Postemergence herbicidal evaluation; assay type: in vivo, Ambrosia artemisifolia; settings: postemergence
Summary of the method: as §1

[3] = system: ECHCG (Barnyardgrass); assay: Postemergence herbicidal evaluation; assay type: in vivo, Echinochloa crus-galli; settings: postemergence
Summary of the method: as §1

[4] = system: SETVI (Foxtail, Green); assay: Postemergence herbicidal evaluation; assay type: in vivo, Setaria viridis; settings: postemergence
Summary of the method: as §1

[5] = system: GLXMAW (Soybean, Williams); assay: Postemergence herbicidal evaluation; assay type: in vivo, Glycine max, (L.) Merr. cv Williams; settings: postemergence
Summary of the method: as §1

[6] = system: ORYSAT (Rice, Tebonnet); assay: Postemergence herbicidal evaluation; assay type: in vivo, Oryza sativa, (L.) Tebonnet; settings: postemergence
Summary of the method: as §1

[7] = system: TRZAWR (Wheat, Winter, cv Riband); assay: Postemergence herbicidal evaluation; assay type: in vivo, Triticum aestivum; settings: postemergence
Summary of the method: as §1

[8] = system: ABUTH (Velvetleaf); assay: Preemergence herbicidal evaluation; assay type: in vivo, Abutilon theophrasti; settings: rated 4-5 weeks after treatment, rating scale 0-9
Summary of the method: (§2)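 Preemergence soil application of compound, sprayed in aqueous acetone at rates equivalent to about 0.0156 to 0.500 kg per hectare onto freshly sown cups. Plant response was judged by eye on a 0-9 scale four to five weeks later.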

[9] = system: CASOB (Sicklepod); assay: Preemergence herbicidal evaluation; assay type: in vivo, Cassia obtusifolia; settings: rated 4-5 weeks after treatment, rating scale 0-9
Summary of the method: as §2

[10] = system: SETVI (Foxtail, Green); assay: Preemergence herbicidal evaluation; assay type: in vivo, Setaria viridis; settings: rated 4-5 weeks after treatment, rating scale 0-9
Summary of the method: as §2

[11] = system: MOOVA (Monochoria); assay: Preemergence weed control under flooded paddy conditions; assay type: in vivo, Monochoria vaginalis; settings: rated 3-4 weeks after treatment
Summary of the method: (§3)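 First, seeds or propagules go into the top 0.5 cm of silt loam; next, water is held 1.5 to 3 cm over the soil; then compound (50/50 acetone/water) is pipetted into it at about 0.0313 to 0.500 kg/ha; finally plants are rated visually 0-9 after three to four weeks.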

[12] = system: SAGPY (Arrowhead (Pygmaea)); assay: as above; assay type: in vivo, Sagittaria pygmaea; settings: rated 3-4 weeks after treatment
Summary of the method: as §3

Cn1c(C(F)(F)F)cc(=O)n(-c2cc(N=C3SCC(=O)N3Cc3ccc(F)cc3)c(Cl)cc2F)c1=O [Compound 151, 3-{4-Chloro-2-fluoro-5-{[3-(p-fluorobenzyl)-4-oxo-2-thiazolidinylidene]amino}phenyl}-1-methyl-6-(trifluoromethyl)-2,4(1H,3H)-pyrimidinedione]
0.0: Preemergence herbicidal rating CASOB ([9]; rate 0.0156 kg/ha) | herbicidal effect rating, SAGPY ([12]; 0.0313 kg/ha)
3.5: Herbicidal rating ORYSAT ([6]; rate 0.0625 kg/ha)
6.0: herbicidal effect rating, MOOVA ([11]; 0.0313 kg/ha) | herbicidal effect rating, SAGPY ([12]; 0.2500 kg/ha)
3.0: Herbicidal rating ECHCG ([3]; rate 0.0156 kg/ha) | Herbicidal rating ECHCG ([3]; rate 0.0313 kg/ha)
9.0: Herbicidal rating ABUTH ([1]; rate 0.0156 kg/ha) | Herbicidal rating ABUTH ([1]; rate 0.0313 kg/ha) | Herbicidal rating ABUTH ([1]; rate 0.0625 kg/ha) | Herbicidal rating AMBEL ([2]; rate 0.0625 kg/ha) | Herbicidal rating SETVI ([4]; rate 0.0625 kg/ha) | Preemergence herbicidal rating ABUTH ([8]; rate 0.0156 kg/ha) | Preemergence herbicidal rating ABUTH ([8]; rate 0.0313 kg/ha) | Preemergence herbicidal rating ABUTH ([8]; rate 0.0625 kg/ha) | Preemergence herbicidal rating ABUTH ([8]; rate 0.1250 kg/ha) | Preemergence herbicidal rating ABUTH ([8]; rate 0.2500 kg/ha) | Preemergence herbicidal rating CASOB ([9]; rate 0.1250 kg/ha) | Preemergence herbicidal rating CASOB ([9]; rate 0.2500 kg/ha) | Preemergence herbicidal rating SETVI ([10]; rate 0.0156 kg/ha) | Preemergence herbicidal rating SETVI ([10]; rate 0.0313 kg/ha) | Preemergence herbicidal rating SETVI ([10]; rate 0.0625 kg/ha) | Preemergence herbicidal rating SETVI ([10]; rate 0.1250 kg/ha) | Preemergence herbicidal rating SETVI ([10]; rate 0.2500 kg/ha) | herbicidal effect rating, MOOVA ([11]; 0.0625 kg/ha) | herbicidal effect rating, MOOVA ([11]; 0.1250 kg/ha) | herbicidal effect rating, MOOVA ([11]; 0.2500 kg/ha)
7.0: Herbicidal rating AMBEL ([2]; rate 0.0156 kg/ha) | Herbicidal rating AMBEL ([2]; rate 0.0313 kg/ha)
5.5: Herbicidal rating GLXMAW ([5]; rate 0.0625 kg/ha)
8.0: herbicidal effect rating, SAGPY ([12]; 0.1250 kg/ha)
5.0: Herbicidal rating SETVI ([4]; rate 0.0156 kg/ha) | Herbicidal rating SETVI ([4]; rate 0.0313 kg/ha)
2.0: Herbicidal rating ORYSAT ([6]; rate 0.0156 kg/ha) | Preemergence herbicidal rating CASOB ([9]; rate 0.0313 kg/ha) | Preemergence herbicidal rating CASOB ([9]; rate 0.0625 kg/ha) | herbicidal effect rating, SAGPY ([12]; 0.0625 kg/ha)
4.5: Herbicidal rating GLXMAW ([5]; rate 0.0313 kg/ha)
2.5: Herbicidal rating ORYSAT ([6]; rate 0.0313 kg/ha) | Herbicidal rating TRZAWR ([7]; rate 0.0156 kg/ha) | Herbicidal rating TRZAWR ([7]; rate 0.0313 kg/ha)
4.0: Herbicidal rating ECHCG ([3]; rate 0.0625 kg/ha) | Herbicidal rating GLXMAW ([5]; rate 0.0156 kg/ha) | Herbicidal rating TRZAWR ([7]; rate 0.0625 kg/ha)

From patent US20020137929A1, “1 - (3-heterocyclylphenyl) isothiourea, -isourea, -guanidine and -amidine herbicidal agents” (Intellectual Property Department, BASF Aktiengesellschaft, priority 1998, published 2002)
